# Measured values from patent publication US12528826B2, “[1,4]oxazepino[2,3-c]quinolinone derivatives as BCL6 inhibitors” (Cancer Research Technology Limited, priority 2019, dated 2026).
# Biological target: T1, Trx-6×His-BCL6 (human BCL6 BTB domain covering amino-acid sequence 5-129) (Homo sapiens, UniProt P41182)
# T1 construct: made in house
# Test: HTRF assay (BCL6 / BCOR peptide)
# Type: binding
# Conditions: 1 nM Trx-6×His-BCL6, 300 nM BCOR-AF633 peptide, 2 hours incubation at room temperature; read-out: HTRF avg pIC50 (converted)
# Procedure: After 2 hours incubation at room temperature the plate was read on a Pherastar FSX (BMG Labtech) plate reader equipped with 337 nm laser excitation filter, a first emission filter at 620 nm and a second emission filter at 665 nm. The % inhibition at each concentration was calculated by normalising FRET ratio to the appropriate high (DMSO with all reagents) and low (DMSO without BCL6) controls.
row,SMILES,IC50 [nM]
1,"Cn1c(=O)c2c(c3cc(Nc4nc(N5CCC[C@H](CO)C5)ncc4Cl)ccc31)N[C@@H](C1CC1)C(F)(F)CO2 [Example 9q, (S)-10-((5-chloro-2-((S)-3-(hydroxymethyl)piperidin-1-yl)pyrimidin-4-yl)amino)-2-cyclopropyl-3,3-difluoro-7-methyl-1,2,3,4-tetrahydro-[1,4]oxazepino[2,3-c]quinolin-6(7H)-one]",4.27
2,"Cn1c(=O)c2c(c3cc(Nc4nc(N5C[C@H](F)C[C@H](F)C5)ncc4Cl)ccc31)N[C@@H](C1CC1)C(F)(F)CO2 [Example 9s, (S)-10-((5-chloro-2-((3S,5R)-3,5-difluoropiperidin-1-yl)pyrimidin-4-yl)amino)-2-cyclopropyl-3,3-difluoro-7-methyl-1,2,3,4-tetrahydro-[1,4]oxazepino[2,3-c]quinolin-6(7H)-one]",19.5
3,"CN(CC(C)(C)O)c1ncc(Cl)c(Nc2ccc3c(c2)c2c(c(=O)n3C)OCC(F)(F)[C@H](C3CC3)N2)n1 [Example 9u, (S)-10-((5-chloro-2-((2-hydroxy-2-methylpropyl)(methyl)amino)pyrimidin-4-yl)amino)-2-cyclopropyl-3,3-difluoro-7-methyl-1,2,3,4-tetrahydro-[1,4]oxazepino[2,3-c]quinolin-6(7H)-one]",4.17
4,"CN(CCC(C)(C)O)c1ncc(Cl)c(Nc2ccc3c(c2)c2c(c(=O)n3C)OCC(F)(F)[C@H](C3CC3)N2)n1 [Example 9v, (S)-10-((5-chloro-2-((3-hydroxy-3-methylbutyl)(methyl)amino)pyrimidin-4-yl)amino)-2-cyclopropyl-3,3-difluoro-7-methyl-1,2,3,4-tetrahydro-[1,4]oxazepino[2,3-c]quinolin-6(7H)-one]",4.68
5,"Cn1c(=O)c2c(c3cc(Nc4nc(N5CC6(CN(CC7CC7)C6)C5)ncc4Cl)ccc31)N[C@@H](C1CC1)C(F)(F)CO2 [Example 9w, (S)-10-((5-chloro-2-(6-(cyclopropylmethyl)-2,6-diazaspiro[3.3]heptan-2-yl)pyrimidin-4-yl)amino)-2-cyclopropyl-3,3-difluoro-7-methyl-1,2,3,4-tetrahydro-[1,4]oxazepino[2,3-c]quinolin-6(7H)-one]",2.75
6,"Cn1c(=O)c2c(c3cc(Nc4nc(N5CC6(CN(CC7CC7(F)F)C6)C5)ncc4Cl)ccc31)N[C@@H](C1CC1)C(F)(F)CO2 (stereo partly drawn) [Example 9x, (2S)-10-((5-chloro-2-(6-((2,2-difluorocyclopropyl)methyl)-2,6-diazaspiro[3.3]heptan-2-yl)pyrimidin-4-yl)amino)-2-cyclopropyl-3,3-difluoro-7-methyl-1,2,3,4-tetrahydro-[1,4]oxazepino[2,3-c]quinolin-6(7H)-one]",3.47
7,"Cn1c(=O)c2c(c3cc(Nc4nc(N5CC6CCC(C5)N6CC5CC5)ncc4Cl)ccc31)N[C@@H](C1CC1)C(F)(F)CO2 [Example 9y, (2S)-10-((5-chloro-2-(8-(cyclopropylmethyl)-3,8-diazabicyclo[3.2.1]octan-3-yl)pyrimidin-4-yl)amino)-2-cyclopropyl-3,3-difluoro-7-methyl-1,2,3,4-tetrahydro-[1,4]oxazepino[2,3-c]quinolin-6(7H)-one]",2.75
8,"Cn1c(=O)c2c(c3cc(Nc4nc(N5CC6CCC(C5)N6CC5CC5(F)F)ncc4Cl)ccc31)N[C@@H](C1CC1)C(F)(F)CO2 (stereo partly drawn) [Example 9za, (2S)-10-((5-chloro-2-(8-((2,2-difluorocyclopropyl)methyl)-3,8-diazabicyclo[3.2.1]octan-3-yl)pyrimidin-4-yl)amino)-2-cyclopropyl-3,3-difluoro-7-methyl-1,2,3,4-tetrahydro-[1,4]oxazepino[2,3-c]quinolin-6(7H)-one]",7.59
9,"C[C@@H]1C[C@@H](O)CN(c2ncc(Cl)c(Nc3ccc4c(c3)c3c(c(=O)n4C)OCC(F)(F)[C@H](C4CC4)N3)n2)C1 [Example 9zb, (S)-10-((5-chloro-2-((3R,5R)-3-hydroxy-5-methylpiperidin-1-yl)pyrimidin-4-yl)amino)-2-cyclopropyl-3,3-difluoro-7-methyl-1,2,3,4-tetrahydro-[1,4]oxazepino[2,3-c]quinolin-6(7H)-one]",9.77
10,"CN1CCCN(c2ncc(Cl)c(Nc3ccc4c(c3)c3c(c(=O)n4C)OCC(F)(F)[C@H](C4CC4)N3)n2)CC1 [Example 11a, (2S)-10-[[5-chloro-2-(4-methyl-1,4-diazepan-1-yl)pyrimidin-4-yl]amino]-2-cyclopropyl-3,3-difluoro-7-methyl-2,4-dihydro-1H-[1,4]oxazepino[2,3-c]quinolin-6-one]",2.75
11,"Cn1c(=O)c2c(c3cc(Nc4nc(N5C[C@H](O)C[C@H](O)C5)ncc4Cl)ccc31)N[C@@H](C1CC1)C(F)(F)CO2 [Example 11e, (S)-10-((5-chloro-2-((3R,5S)-3,5-dihydroxypiperidin-1-yl)pyrimidin-4-yl)amino)-2-cyclopropyl-3,3-difluoro-7-methyl-1,2,3,4-tetrahydro-[1,4]oxazepino[2,3-c]quinolin-6(7H)-one]",0.871
12,"CCCN(C)c1ncc(Cl)c(Nc2ccc3c(c2)c2c(c(=O)n3C)OCC(F)(F)[C@H](C3CC3)N2)n1 [Example 11i, (S)-10-((5-chloro-2-(methyl(propyl)amino)pyrimidin-4-yl)amino)-2-cyclopropyl-3,3-difluoro-7-methyl-1,2,3,4-tetrahydro-[1,4]oxazepino[2,3-c]quinolin-6(7H)-one]",30.9
13,"CCCN(CCO)c1ncc(Cl)c(Nc2ccc3c(c2)c2c(c(=O)n3C)OCC(F)(F)[C@H](C3CC3)N2)n1 [Example 11k, (S)-10-((5-chloro-2-((2-hydroxyethyl)(propyl)amino)pyrimidin-4-yl)amino)-2-cyclopropyl-3,3-difluoro-7-methyl-1,2,3,4-tetrahydro-[1,4]oxazepino[2,3-c]quinolin-6(7H)-one]",9.77
14,"Cn1c(=O)c2c(c3cc(Nc4nc(N5CCCC6(CC6)C5)ncc4Cl)ccc31)N[C@@H](C1CC1)C(F)(F)CO2 [Example 11l, (S)-10-((5-chloro-2-(5-azaspiro[2.5]octan-5-yl)pyrimidin-4-yl)amino)-2-cyclopropyl-3,3-difluoro-7-methyl-1,2,3,4-tetrahydro-[1,4]oxazepino[2,3-c]quinolin-6(7H)-one]",44.7
15,"Cn1c(=O)c2c(c3cc(Nc4nc(N5CC(C)(C)C5)ncc4Cl)ccc31)N[C@@H](C1CC1)C(F)(F)CO2 [Example 11n, (S)-10-((5-chloro-2-(3,3-dimethylazetidin-1-yl)pyrimidin-4-yl)amino)-2-cyclopropyl-3,3-difluoro-7-methyl-1,2,3,4-tetrahydro-[1,4]oxazepino[2,3-c]quinolin-6(7H)-one]",14.8
16,"CC1CN(c2ncc(Cl)c(Nc3ccc4c(c3)c3c(c(=O)n4C)OCC(F)(F)[C@H](C4CC4)N3)n2)C1 [Example 11o, (S)-10-((5-chloro-2-(3-methylazetidin-1-yl)pyrimidin-4-yl)amino)-2-cyclopropyl-3,3-difluoro-7-methyl-1,2,3,4-tetrahydro-[1,4]oxazepino[2,3-c]quinolin-6(7H)-one]",7.59
17,"Cn1c(=O)c2c(c3cc(Nc4nc(N5CC(C#N)C5)ncc4Cl)ccc31)N[C@@H](C1CC1)C(F)(F)CO2 [Example 11p, (S)-1-(5-chloro-4-((2-cyclopropyl-3,3-difluoro-7-methyl-6-oxo-1,2,3,4,6,7-hexahydro-[1,4]oxazepino[2,3-c]quinolin-10-yl)amino)pyrimidin-2-yl)azetidine-3-carbonitrile]",4.07
